Experimental data taken from ChEMBL document CHEMBL1128780, “Inactivation of carboxypeptidase a by 2-benzyl-3,4-epithiobutanoic acid” (Bioorg Med Chem Lett, 1995).

Tests used:
[1] = (§1) Inhibitory activity against Carboxypeptidase A (CPA)
[2] = as §1; remark: listed apart in the source

Compound | K inact [1] | Ki [2]
O=C(O)[C@H](Cc1ccccc1)[C@H]1CO1 (single isomer, unassigned) | 1.59 min⁻¹ | 86 µM
O=C(O)[C@H](Cc1ccccc1)[C@H]1CS1 | 1.31 min⁻¹ | 94 µM
O=C(O)[C@@H](Cc1ccccc1)[C@H]1CO1 | 1.11 min⁻¹ | 155 µM
